For 124 compounds, melting point results are on record in a melting point compilation (Tetko et al.).

One may read the melting point as the temperature of the solid-liquid transition.

For the compound `O=C(CCl)NCC1CCN(c2ccccc2)C1` (centres undefined), the melting point was 61 to 63 °C.
In the case of `CC(=O)Nc1cc(F)c(S(=O)(=O)Cl)c(F)c1` it was 133 to 135 °C.
In the case of `NC(=O)c1ncon1` it was 156 to 158 °C; in that of `N#CC1(c2ccc3c(c2)OCO3)CC1`, 73 to 75 °C; in that of `Cn1nc(Br)c2c(N)ncnc21`, 228 to 230 °C.
In the case of `CC(CS(=O)(=O)c1ccc(Br)cc1)C(=O)O` (centres undefined) it was 144 to 146 °C.
For the compound `COCCCC(N)=S`, the melting point fell in the range of 48 to 50 °C.
In turn, `CCCCn1c(=O)c(CCC(=O)O)nc2ccccc21` registered a melting point of 146 to 148 °C.
As for `COc1ccc(-c2csc(CN)c2)cc1`, the figure is 124 to 126 °C.
`O=Cc1ccc(OCC(=O)O)c([N+](=O)[O-])c1` came in with a melting point of 156 to 158 °C.
In the case of `Cc1cc(C)c2c(c1)c(C)cc1nnc(S)n12` it was 262 to 264 °C; in that of `O=C(O)CNS(=O)(=O)C1CCS(=O)(=O)C1` (centres undefined), 306 to 308 °C; in that of `NNC(=O)Cc1ccccc1Cl`, 154 to 156 °C.
In the case of `Clc1cc(NC2CCOc3ccccc32)ncn1` (centres undefined) it was 129 to 131 °C; in that of `CC1CNCCC1NC(=O)OC(C)(C)C` (centres undefined), 104 to 106 °C; in that of `CC(C)C1CCC2(CC1)NC(=O)NC2=O` (centres undefined), 298 to 300 °C.
Regarding `CN(C)c1cc(C(F)(F)F)nc(Cl)n1`, the melting point lay in the range of 106 to 108 °C.
As for `O=c1c(Cl)c(Cl)cnn1Cc1ccccc1`, the figure is 87 to 89 °C; as for `O=C(c1ccc(S(=O)(=O)Cl)cc1)N1CCOCC1`, 110 to 112 °C; as for `O=C(O)c1nccnc1C(=O)N1CCOCC1`, 185 to 187 °C.
As for `C=CCOc1ccccc1C(=O)O`, the figure is 58 to 60 °C; as for `OCc1ccncc1Cl`, 118 to 120 °C.
With `O=C(O)CCc1nc2ccccc2s1`, the melting point lay in the range of 97 to 99 °C.
In the case of `O=C1NCC(Br)C(=O)N1` (centres undefined) it was 200 to 202 °C; in that of `O=C(O)Cc1csc(Cc2ccc(F)cc2)n1`, 137 to 139 °C; in that of `CCCc1noc2nc(-c3ccco3)cc(C(=O)O)c12`, 204 to 206 °C.
In the case of `NNC(=O)Cc1nc(-c2ccccc2)cs1` it was 135 to 140 °C; in that of `O=C(O)CCNC(=O)c1ccoc1`, 154 to 156 °C; in that of `CCOc1ccc(CCC(=O)O)cc1`, 102 to 104 °C.
In the case of `OC(c1c(F)cncc1Br)C1CCCCC1` (centres undefined) it was 76 to 78 °C.
For the compound `Nc1ccccc1OCCN1CC(=O)Nc2ccccc21`, the melting point fell in the range of 147 to 149 °C.
Compound `CC(Cl)C(=O)NC1CCOc2ccccc21` (centres undefined) gave a melting point of 129 to 131 °C.
As for `Cc1n[nH]c2ncc(C=O)cc12`, the figure is 202 to 204 °C; as for `CSc1nc(CCl)cc(=O)[nH]1`, 176 to 178 °C; as for `O=C(CCl)c1ccc(C2CCCCC2)cc1`, 182 to 187 °C.
The compound `CCCn1c(S)nnc1CO` returned a melting point of 119 to 121 °C.
As for `Cc1ccc(-c2cncc(C(=O)O)c2)cc1`, the figure is 266 to 268 °C.
In the case of `Cc1ccc2cc(C(=O)O)[nH]c2c1` it was 209 to 211 °C.
In the case of `Nc1n[nH]c2cccc(F)c12` it was 171 to 173 °C.
Compound `O=C(O)c1cccc(S(=O)(=O)NC2CCOC2=O)c1` (centres undefined) yielded a melting point of 220 to 222 °C.
In the case of `NCc1cccc(NC(=O)c2ccncc2)c1` it was 128 to 130 °C.
In turn, `Cc1cc(C=O)cc(C)c1OC(F)F` registered a melting point of 56 to 58 °C.
In the case of `O=C(O)c1nn(-c2ccc(F)cc2)cc1O` it was 227 to 229 °C; in that of `Cc1nc(Cc2nnc(S)o2)cs1`, 194 to 196 °C; in that of `NNC(=S)NCCc1ccccn1`, 124 to 126 °C.
As for `O=C(CCl)NCc1ccc(C(=O)N2CCCC2)cc1`, the figure is 128 to 130 °C; as for `COC(=O)c1csc(Br)c1`, 37 to 39 °C.
In the case of `O=C(O)CNC(=O)c1ccc(F)c(F)c1` it was 180 to 182 °C.
In the case of `Nc1cc(OCC(F)(F)F)cc(OCC(F)(F)F)c1`, the melting point is 50 to 52 °C.
In turn, `O=C(Nc1cccc(N2CCOC2=O)c1)OCC(F)(F)F` came in with a melting point of 152 to 154 °C.
In the case of `CC(C)c1ccc(NC(=S)NN)cc1` it was 179 to 181 °C; in that of `COc1cc(C=O)ccc1OCC#N`, 75 to 77 °C.
In the case of `CCc1nc(N)nc(SC)n1` it was 143 to 145 °C; in that of `O=C(CBr)c1ccc(S(=O)(=O)N2CCOCC2)cc1`, 148 to 150 °C.
The compound `O=C(O)C1CCCCC1C(=O)NC1CCS(=O)(=O)C1` (centres undefined) showed a melting point of 137 to 139 °C.
`Cc1cc2occ(CC(=O)O)c2cc1C` yielded a melting point of 133 to 135 °C.
As for `O=Cc1ccc(-c2ccc([N+](=O)[O-])cc2Br)o1`, the figure is 132 to 136 °C; as for `O=C(O)Cn1ccc(=O)c2ccccc21`, 274 to 276 °C.
Consider `Cc1cc(C(=O)O)c(Cl)cc1F`, for which the melting point lay within 149 to 151 °C.
In the case of `CC(C)(C)OC(=O)NC(C#N)c1ccc(F)cc1` (centres undefined) it was 85 to 87 °C.
As for `CCSc1ccccc1C(=O)O`, the figure is 135 to 137 °C; as for `Cc1ccc(C(=O)C(O)c2ccc(C)cc2)cc1` (centres undefined), 88 to 90 °C; as for `Cc1ccnc(-c2ccc(N)cc2)n1`, 118 to 120 °C.
As for `COc1cccc(C(=O)O)n1`, the figure is 133 to 135 °C; as for `NC(=S)c1cccc(C(F)(F)F)c1`, 66 to 68 °C; as for `O=C(O)c1csc(-c2ccc(F)cc2)n1`, 196 to 198 °C.
For `O=C1CCNc2ncccc2N1`, the melting point fell in the range of 263 to 265 °C.
In turn, `Nc1ccc(S(=O)(=O)Nc2ccc(F)c(Cl)c2)cc1` showed a melting point of 173 to 175 °C.
In the case of `CC(C)NS(=O)(=O)c1ccc(Cl)c(C(=O)O)c1Cl` it was 218 to 220 °C.
In the case of `CCCCCCOC(=O)c1ccc(N)cc1` it was 59 to 61 °C; in that of `CCOc1ccc(Cl)nn1`, 60 to 62 °C; in that of `Cc1noc(C)c1CCC(=O)O`, 109 to 111 °C.
As for `NC1(c2ccc(Cl)cc2)CCOCC1`, the figure is 50 to 52 °C; as for `Cc1cccc(-n2nc(-c3ccco3)cc2N)c1`, 82 to 84 °C; as for `O=C(O)C1CCCN(C(=O)c2ccc(Cl)cc2)C1` (centres undefined), 145 to 152 °C.
With `NC(=NO)c1ccc(Cn2cnc3ccccc32)cc1`, the melting point lay within 237 to 239 °C.
In the case of `O=C(CCl)N(Cc1ccc(F)cc1)C1CCCCC1` it was 73 to 75 °C.
In turn, `N#CCCn1cc(C(=O)CCl)c2ccccc21` gave a melting point of 138 to 140 °C.
As for `Cc1cc(Br)ccc1N1CC(C(=O)O)CC1=O` (centres undefined), the figure is 81 to 83 °C; as for `Cc1noc2ncnc(N)c12`, 269 to 271 °C.
As for `COC(=O)c1n[nH]c(=O)c2noc(C3CC3)c12`, the figure is 234 to 236 °C; as for `CN(C)S(=O)(=O)c1ccsc1C(=O)O`, 108 to 110 °C.
In the case of `CCOC(=O)Nc1ccc(O)cc1` it was 124 to 126 °C.
As for `Nc1cc(-c2cccs2)no1`, the melting point was 91 to 93 °C.
As for `N#CC1(N2CCCC2)CCNCC1`, the figure is 61 to 63 °C; as for `NCCn1ncc2ccccc2c1=O`, 87 to 89 °C.
In the case of `CCn1c(Cl)nnc1-c1ccccc1Cl` it was 123 to 125 °C; in that of `Cc1cc(O)cc(C(=O)O)c1`, 205 to 207 °C; in that of `OC1CCN(c2cncc(Cl)n2)C1` (centres undefined), 80 to 82 °C.
In the case of `Cn1ccnc1-c1cc(Cl)ccn1` it was 77 to 79 °C; in that of `Nc1ccc(Cl)cc1C(=O)N1CCCC1`, 139 to 141 °C.
`COc1cc(CCc2cc(N)n[nH]2)cc(OC)c1` displayed a melting point of 107 to 109 °C.
As for `COc1ccccc1C(N)=NO`, the figure is 105 to 107 °C; as for `Cc1cc(S(=O)(=O)Cl)ccc1F`, 36 to 38 °C; as for `Cc1ocnc1C(=O)O`, 127 to 129 °C.
As for `COC(=O)C1=C(C)NC(C)=C(C(=O)OC)C1C(=O)O`, the figure is 128 to 130 °C; as for `CS(=O)(=O)c1cccc(Cl)c1C=O`, 102 to 104 °C.
Compound `Cc1c(C(=O)O)cnn1-c1cccc(Br)c1` had a melting point of 169 to 171 °C.
As for `CN(CC(=O)O)c1cnccn1`, the figure is 170 to 172 °C; as for `NCCc1ccc(OCC(N)=O)cc1`, 96 to 98 °C; as for `O=C(O)c1coc(-c2ccccc2)n1`, 209 to 211 °C.
In turn, `CN1CCC(CC(=O)O)CC1` showed a melting point of 150 to 152 °C.
Consider `O=C(CCl)NCc1ccc(C(=O)N2CCOCC2)cc1`, for which the melting point was 142 to 144 °C.
As for `Cc1nc(-c2cc(C(=O)O)n(C)c2)cs1`, the figure is 171 to 173 °C.
In the case of `N#Cc1c(F)c(N)c(F)c(F)c1C#N` it was 159 to 161 °C; in that of `Nc1ccc(F)c(NC(=O)C2CC2)c1`, 121 to 123 °C.
In the case of `CCOC(=O)c1sc2ncc(C#N)cc2c1C` it was 181 to 183 °C; in that of `CC1(C(=O)O)CCCN1C(=O)c1ccccc1` (centres undefined), 205 to 207 °C.
`Cc1ccc(OCc2nc(C(=O)O)cs2)cc1` had a melting point of 198 to 200 °C.
In the case of `CC(C(=O)O)c1ccc2c(c1)OCCO2` (centres undefined) it was 77 to 79 °C; in that of `COc1ccc(Cc2nnc(S)n2N)cc1OC`, 177 to 179 °C.
Compound `O=C(c1ccc(F)cc1F)N1CCCNCC1` showed a melting point of 93 to 95 °C.
For the compound `O=c1cc2c(n[nH]1)CCOC2`, the melting point is 218 to 220 °C.
As for `COc1cc(C(C)=O)ccc1S`, the figure is 58 to 60 °C.
In the case of `Cc1ccccc1-c1nnc(N)o1` it was 160 to 162 °C; in that of `O=c1c2ccccc2nnn1CCl`, 129 to 133 °C.
In turn, `Nc1nccn2ccnc12` gave a melting point of 212 to 214 °C.
In the case of `O=C(O)c1ccon1` it was 143 to 145 °C.
In the case of `O=C(O)c1ccc(Cl)c(S(=O)(=O)Nc2ccccc2Cl)c1` it was 213 to 215 °C; in that of `O=C(O)CNC(=O)C(F)(F)F`, 152 to 154 °C; in that of `COc1cc(Br)cc(F)c1C#N`, 75 to 77 °C.
In the case of `CCn1c(N)nc2cc(C#N)ccc21` it was 189 to 191 °C; in that of `CC(=CC(=O)O)c1ccccc1`, 93 to 95 °C; in that of `COc1ccc(S(=O)(=O)Cl)c(C)c1F`, 90 to 92 °C.
